Data on one substance can be found in US20190264255A1, “Competition Test of an Enzyme Substrate with Internal Compensation for Enzyme Activity” (TECHNISCHE UNIVERSITÄT DARMSTADT, priority 2016, published 2019).

For the assay, the target named is Thrombin (Homo sapiens, UniProt P00734). The assay can be described thus: Thrombin cleavage of Z-Gly-Pro-Arg-p-phenylenediamine, photometric detection by oxidative coupling with a-naphthol. The class given is biochemical. As to conditions: pH 8; buffer as for fluorescence measurement + 2% Triton X100; substrate cleavage by thrombin. As for the experimental part: Buffer, substrate and fibrinogen were placed in a 96-well microtiter plate. The enzyme was injected with the injector attached to the TECAN reader. The experimental conditions are set out in the following information. • Substrate conc. Z-Gly-Pro-Arg-aminomethylcoumarin 10 mM in DMSO • Substrate dil. Z-Gly-Pro-Arg-aminomethylcoumarin 1 mM in DMSO • Test buffer 50 mM Tris, 250 mM NaCl, 0.1% PEG6000, pH 8.0 • Haemocomplettan 100 mg/ml dist. water≅44 mg/ml of fibrinogen • Enzyme Solution 1 U/ml in 10 mM HEPES, 0.1% bovine serum albumin, pH 6.4 • Temperature 30 C
Thrombin also cleaves Z-Gly-Pro-Arg-p-phenylenediamine. The product could be detected by oxidative coupling with a-naphthol in the presence of hexacyanoferrate III. The result was a violet dye with Amax=565 nm. The Michaelis-Menten constant at pH 8 (buffer as for fluorescence measurement+2% Triton X100) was 6 μM.

Regarding Z-Gly-Pro-Arg-p-phenylenediamine, the Michaelis-Menten constant came out at 6 µM.
